Some results are limits rather than exact numbers.

The text below walks through data of patent publication US20040096423A1, “Use of a triple combination comprising a 5ht3 antagonist, a 5ht4agonist and a laxative for promoting intestinal lavage” (priority 2000, published 2004).

The test system of one test is dogs. Description: Measurement of onset of liquid stool in dogs challenged with KleanPrep. Particulars: for ED50: Canis lupus familiaris, read-out: ED50 for liquid stools within 6 hours after administration of KleanPrep. The class given is in vivo, dog. The procedure: Measurement of Onset of Liquid Stool
The dogs were orally or subcutaneously pretreated with test compounds or distilled water (0.5 ml/kg) and 1 hour later challenged by gavage with KleanPrep™ (standard volume: 2×200 ml at a 15 minutes interval). The time interval at which the first liquid stool occurred was noted (in minutes after the first administration of KleanPrep™) up to 6 hours after challenge.
The KleanPrep™ preparation consisted of polyethyleneglycol 3350 (59.000 g/l), sodium sulphate (5.685 g/l), sodium hydrogencarbonate (1.685 g/l), sodium chloride (1.465 g/l), potassium chloride (0.7425 g/l), aspartate (0.0494 g/l) and vanilla (0.3291 g/l).
In a pilot study on five dogs, large volumes of KleanPrep™ (1400, 1400, 1800, 2800, 2800 ml) and relatively long time intervals (95, 101, 124, 211 and 305 minutes after KleanPrep™) were required to obtain liquid stools within an observation period of 6 hours. In the present experiments, a standard volume of 400 ml KleanPrep™ solution (2×200 ml at a 15 minutes interval) was used. Under these conditions, liquid stools were not observed up to 6 hours after KleanPrep™, neither in 40 control dogs pretreated with a single dose of distilled water (0.5 ml/kg, p.o., −1 hour), nor in 35 control dogs pretreated with two doses of distilled water (0.5 ml/kg, p.o., −1 hour) immediately after each other, nor in 10 dogs pretreated with a dose of distilled water (0.5 ml/kg, p.o., −1 hour) and a dose of saline (0.5 ml/kg, s.c., −1 hour), nor in 5 dogs treated with two doses of distilled water (0.5 ml/kg, p.o., −1 hour) and a dose of saline (0.5 ml/kg, s.c., −1 hour).

The target of the next test is T1, 5HT4 receptor (Cavia porcellus, UniProt O70528).
T1 construct: The longitudinal muscle layer with myenteric plexus was removed; from tissue; host or cells: guinea-pig ileum longitudinal muscle with myenteric plexus
Description: Electrically stimulated guinea-pig ileum longitudinal muscle-myenteric plexus strips (titled in vitro binding affinity for the 5HT4 receptor). The class given is cell-based. Conditions: submaximal electrical stimulation.

Where [1] appears, read: dogs, 5HT4 agonist alone 1 h before KleanPrep 2×200 ml.
Where [2] appears, read: dogs pretreated with Compound A 0.01 mg/kg, 5HT4 agonist co-administered, + KleanPrep.
Setting [3] is: dogs pretreated with Compound A 0.01 mg/kg, 5HT4 agonist co-administered, + KleanPrep, shortest median reached (down to).
[4] abbreviates: of 35 dogs, Compound A 0.01 mg/kg p.o. + distilled water, 1 h before KleanPrep.

T1 sequence (O70528 whole entry): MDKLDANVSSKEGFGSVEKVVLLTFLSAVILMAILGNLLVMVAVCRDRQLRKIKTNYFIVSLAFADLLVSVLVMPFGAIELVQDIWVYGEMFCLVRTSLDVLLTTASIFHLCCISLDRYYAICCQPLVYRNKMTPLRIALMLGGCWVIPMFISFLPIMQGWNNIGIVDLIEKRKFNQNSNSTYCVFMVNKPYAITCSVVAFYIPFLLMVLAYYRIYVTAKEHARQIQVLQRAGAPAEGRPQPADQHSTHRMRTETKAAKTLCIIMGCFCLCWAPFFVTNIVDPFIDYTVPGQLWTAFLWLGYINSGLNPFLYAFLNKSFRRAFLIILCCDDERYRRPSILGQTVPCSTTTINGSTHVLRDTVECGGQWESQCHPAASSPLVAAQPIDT
Description for 5HT4 receptor: Dunkin-Hartley guinea-pigs of either sex (weighing between 600-900 g) were killed by decapitation. The ileum was removed and cleansed with warmed and oxygenated Krebs-Henseleit solution. Parts of the ileum (15 cm) were slipped over a glass pipette. The longitudinal muscle layer with myenteric plexus was removed by means of a cotton thread moistened with Krebs solution. Strips with a length of 8 cm were folded and these strips (4 cm) were mounted between two platinum electrodes (8 cm length, 0.5 cm apart). […] The preparations were excited with single rectangular stimuli [1 ms; 0.1 Hz; submaximal response (current leading to 80% of maximal response), from a programmable stimulator (Janssen Scientific Instruments Division)]. Contractions were measured isometrically (Statham UC2, Janssen Scientific Instruments amplifier, Kipp BD-9 pen-recorder). During the stabilization period of 30 minutes, the strips were repeatedly stretched, in order to obtain a steady state tension of 1.5 g. Before starting the electrical stimulation, a cumulative concentration response curve of acetylcholine (3.10^−9, 10^−8, 3.10^−8 and 10^−7 M) was given. The bath fluid was replaced with fresh Krebs solution and the strips were allowed to stabilize for another 30 minutes. Subsequently, the strips were stimulated electrically (power stimulator) at a frequency of 0.1 Hz for 1 ms. […]

On to `COc1cc(N)c(Cl)cc1C(=O)NC1CCN(CCCOc2ccc(F)cc2)CC1OC` (centres unmarked) [cisapride], for which the ED50 in the test on dogs (setting [1]) was determined as 0.89 mg/kg. Moreover, the “ED50 for liquid stools within 1 hour” value in the test on dogs (setting [2]) is on record as 0.056 mg/kg. The “median onset of the first liquid stool after administration of KleanPrep” value (“median onset of the first liquid stool” for short) in the test with dogs (setting [3]) is 24 min.
Consider `COCCCN1CC[C@@H](CNC(=O)c2cc(Cl)c(N)c3c2OC(C)(C)C3)[C@H](O)C1` [Compound B, (3S-trans)-4-amino-5-chloro-2,3-dihydro-N-[[3-hydroxy-1-(3-methoxypropyl)-4-piperidinyl]methyl]-2,2-dimethyl-7-benzofuran-carboxamide], for which, in the test with dogs (setting [2]), the “ED50 for liquid stools within 1 hour” value was found to be 0.0014 mg/kg. In addition, the “median onset of the first liquid stool” value in the test on dogs (setting [3]) was determined as 29 min. For the same molecule, the “dose up to which liquid stools were not induced over the 6 hour observation period” value in the test on dogs (setting [1]) was more than 2.5 mg/kg. On 5HT4 receptor, this molecule displayed an EC50 of 1.6 nM.
Take `CO[C@@H]1CN(CCCNc2nccc(=O)[nH]2)CC[C@@H]1NC(=O)c1cc(Cl)c(N)c2c1OC(C)(C)C2` (relative stereo) [Compound A, (−)-cis-4-amino-5-chloro-2,3-dihydro-N-[1-[3-[(3,4-dihydro-4-oxo-2-pyrimidinyl)-amino]propyl]-3-methoxy-4-piperidinyl]-2,2-dimethyl-7-benzofurancarboxamide]: the “median onset of the first liquid stool” value with dogs (dogs, Compound A 0.01 mg/kg p.o. + KleanPrep, no 5HT4 agonist (control)) turned out to be 125 min. For the same molecule, in the test with dogs (setting [4]), the “number of dogs displaying liquid stools within 1 hour” value is recorded as “two” and the “number of dogs displaying liquid stools within 6 hours” value is reported as “Thirty-three”.
For `COCCCN1CCC(NC(=O)c2cc(Cl)c(N)c3c2OCC3)CC1` [prucalopride], in the test on dogs (setting [1]), the ED50 came to 2.3 mg/kg and the “dose up to which liquid stools within 1 hour were not obtained” value is more than 5 mg/kg. Moreover, the “ED50 for liquid stools within 1 hour” value with dogs (setting [2]) came out at 0.22 mg/kg. Further, the “median onset of the first liquid stool” value in the test with dogs (setting [3]) was 32 min.
